# Values of other authors in patent US5565433A, “Sulfated β-glycolipid derivatives as cell adhesion inhibitors” (Bristol-Myers Squibb Company, priority 1996, dated 1996).
# Test system: P-selectin
# Settings: cells grown in the presence of sodium selenate; cited from earlier work
smiles,measurement,value
O=[Se](=O)(O)O [sodium selenate],inhibition of P-selectin binding to myeloid cell lines (in words),can be inhibited
